Data taken from US10954252B1, “Inhibitors of human immunodeficiency virus replication” (ViiV HEALTHCARE UK (NO.5) LIMITED, priority 2017, dated 2021).

Assays:
[1] = Compound cytotoxicity, XTT-based colorimetric assay; type: cell-based; conditions: human, uninfected MT2 cells, Table 1, day 4, XTT
In short: (§1)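 XTT colorimetric read-out on day 4 gave CC50 values, using MT2 cells left uninfected but otherwise handled as in the antiviral assay.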

[2] = Stereoisomer interconversion on storage in MeOH at ambient condition; type: physicochemical; conditions: stored in MeOH at ambient condition
[3] = test system: recombinant NL4-3 virus (nef section replaced with Renilla luciferase gene) in MT-2 cells; assay: HIV cell culture assay (antiviral activity, luciferase readout); type: cell-based; conditions: MT-2 cells infected for 4-5 days with recombinant NL4-3 luciferase virus
In short: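 Serially diluted compounds were present throughout a 4-5 day infection of MT-2 cells by recombinant NL4-3 whose nef region partly encodes Renilla luciferase. Antiviral activity was taken from live-cell luciferase signal, with the 50% effective concentration fitted by the exponential median effect equation.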

[4] = test system: uninfected MT2 cells; assay: Compound cytotoxicity, XTT-based colorimetric assay; type: cell-based
In short: as §1

SMILES	CC50 ([4]; Table 1a, day 4, XTT) [nM]	EC50 ([3]; Table 1a) [nM]	further results
Cn1nc(NS(C)(=O)=O)c2c(Cl)ccc(-n3c([C@H](Cc4cc(F)cc(F)c4)NC(=O)Cn4nc(C(F)F)c5c4C(F)(F)C4CC54)nc4nc(Cl)ccc4c3=O)c21 (stereo in doubt) [Example 12.2, N—((S)-1-(7-chloro-3-(4-chloro-1-methyl-3-(methylsulfonamido)-1H-indazol-7-yl)-4-oxo-3,4-dihydropyrido[2,3-d]pyrimidin-2-yl)-2-(3,5-difluorophenyl)ethyl)-2-((3bS,4aR)-3-(difluoromethyl)-5,5-difluoro-3b,4,4a,5-tetrahydro-1H-cyclopropa[3,4]cyclopenta[1,2-c]pyrazol-1-yl)acetamide]	–	–	CC50 at 4 days [1]: > 3300 nM; conversion to another stereoisomer on storage [2]: converts slowly to one of the stereoisomers in Example 12.1; EC50 ([3]; Renilla, NL43, Table 1): 42 nM
O=C(Cn1nc(C(F)F)c2c1C(F)(F)[C@@H]1C[C@H]21)NC(Cc1cc(F)cc(F)c1)c1nc2ncsc2cc1-c1ccc2scnc2c1 (single isomer, unassigned) [Example 1.1]	–	–	CC50 ([4]; Table 1, day 4, XTT): > 100000 nM; EC50 ([3]; Table 1): 3.1 nM
COc1cc(OC)c2c(=O)n(-c3ccc(Cl)c4c(NS(C)(=O)=O)nn(C)c34)c([C@H](Cc3cc(F)cc(F)c3)NC(=O)Cn3nc(C(F)F)c4c3C(F)(F)[C@@H]3C[C@H]43)nc2c1 (single isomer, unassigned) [Example 182]	> 1000	0.061	–
Cn1nc(NS(C)(=O)=O)c2c(Cl)ccc(-n3c(C(Cc4cc(F)cc(F)c4)NC(=O)Cn4nc(C(F)F)c5c4C(F)(F)[C@@H]4C[C@H]54)nc4nc(C(F)(F)F)ccc4c3=O)c21 (mixture of isomers) [Example 11.1, N—((S)-1-(3-(4-chloro-1-methyl-3-(methylsulfonamido)-1H-indazol-7-yl)-4-oxo-7-(trifluoromethyl)-3,4-dihydropyrido[2,3-d]pyrimidin-2-yl)-2-(3,5-difluorophenyl)ethyl)-2-((3bS,4aR)-3-(difluoromethyl)-5,5-difluoro-3b,4,4a,5-tetrahydro-1H-cyclopropa[3,4]cyclopenta[1,2-c]pyrazol-1-yl)acetamide]	–	–	CC50 at 4 days [1]: > 10000 nM; conversion to another stereoisomer on storage [2]: one of the isomers in Example 11.1 converts to Example 11.2; EC50 ([3]; Renilla, NL43, Table 1): 520 nM
Cn1nc(NS(C)(=O)=O)c2c(Cl)ccc(-n3c([C@H](Cc4cc(F)cc(F)c4)NC(=O)Cn4nc(C(F)F)c5c4C(F)(F)[C@@H]4C[C@H]54)nc4ccc(Cl)c(F)c4c3=O)c21 (single isomer, unassigned) [Example 177]	> 1000	45	–
Cn1nc(NS(C)(=O)=O)c2c(Cl)ccc(-c3c(C(Cc4cc(F)cc(F)c4)NC(=O)Cn4nc(C(F)F)c5c4C(F)(F)[C@@H]4C[C@H]54)ncc4[nH]cnc34)c21 (single isomer, unassigned) [Example 7.6]	–	–	CC50 ([4]; Table 1, day 4, XTT): > 10000 nM; EC50 ([3]; Table 1): 8.1 nM
Cn1nc(NS(C)(=O)=O)c2c(Cl)ccc(-c3c(C(Cc4cc(F)cc(F)c4)NC(=O)Cn4nc(C(F)F)c5c4C(F)(F)[C@@H]4C[C@H]54)ncc4[nH]cnc34)c21 (single isomer, unassigned) [Example 7.4]	–	–	CC50 ([4]; Table 1, day 4, XTT): > 10000 nM; EC50 ([3]; Table 1): 300 nM
Cn1ccc2nc(C(Cc3cc(F)cc(F)c3)NC(=O)Cn3nc(C(F)F)c4c3C(F)(F)[C@@H]3C[C@H]43)c(-c3ccc(Cl)c4c(NS(C)(=O)=O)nn(C)c34)cc21 (single isomer, unassigned) [Example 118]	> 10000	0.162	–
O=C(Cc1c[nH]c2ccc(F)cc12)NC(Cc1cc(F)cc(F)c1)c1nc2cn[nH]c2cc1-c1ccc2scnc2c1 (single isomer, unassigned) [Example 3.6, N-(1-(6-(benzo[d]thiazol-5-yl)-1H-pyrazolo[4,3-b]pyridin-5-yl)-2-(3,5-difluorophenyl)ethyl)-2-(5-fluoro-1H-indol-3-yl)acetamide]	–	–	CC50 ([4]; Table 1, day 4, XTT): 32600 nM; EC50 ([3]; Table 1): 230 nM
Cn1nc(NS(C)(=O)=O)c2c(Cl)ccc(-c3cc4[nH]ccc4nc3C(Cc3cc(F)cc(F)c3)NC(=O)Cn3nc(C(F)F)c4c3C(F)(F)[C@@H]3C[C@H]43)c21 (single isomer, unassigned) [Example 5.3]	–	–	CC50 ([4]; Table 1, day 4, XTT): > 10000 nM; EC50 ([3]; Table 1): 0.2 nM
Cn1nc(NS(C)(=O)=O)c2c(Cl)ccc(-n3c([C@H](Cc4cc(F)cc(F)c4)NC(=O)Cn4nc(C(F)F)c5c4C(F)(F)[C@@H]4C[C@H]54)nc4cc(C5CC5)ccc4c3=O)c21 (mixture of isomers) [Example 198, N—((S)-1-(3-(4-chloro-1-methyl-3-(methylsulfonamido)-1H-indazol-7-yl)-7-cyclopropyl-4-oxo-3,4-dihydroquinazolin-2-yl)-2-(3,5-difluorophenyl)ethyl)-2-((3bS,4aR)-3-(difluoromethyl)-5,5-difluoro-3b,4,4a,5-tetrahydro-1H-cyclopropa[3,4]cyclopenta[1,2-c]pyrazol-1-yl)acetamide]	> 1000	0.15	–
Cc1nc2nc(C(Cc3cc(F)cc(F)c3)NC(=O)Cn3nc(C(F)F)c4c3CCC4)c(-c3ccc(Cl)c4c(NS(C)(=O)=O)nn(C)c34)cc2s1 (single isomer, unassigned) [Example 2.4, N-(1-(6-(4-chloro-1-methyl-3-(methylsulfonamido)-1H-indazol-7-yl)-2-methylthiazolo[4,5-b]pyridin-5-yl)-2-(3,5-difluorophenyl)ethyl)-2-(3-(difluoromethyl)-5,6-dihydrocyclopenta[c]pyrazol-1(4H)-yl)acetamide]	–	–	CC50 ([4]; Table 1, day 4, XTT): > 10000 nM; EC50 ([3]; Table 1): 690 nM
Cn1nc(NS(C)(=O)=O)c2c(Cl)ccc(-n3c([C@H](Cc4cc(F)cc(F)c4)NC(=O)Cn4nc(C(F)F)c5c4C(F)(F)[C@@H]4C[C@H]54)nc4c(F)ccc(F)c4c3=O)c21 (single isomer, unassigned) [Example 148]	> 1000	0.13	–
CS(=O)(=O)Nc1nn(CC(F)F)c2c(-c3cc4[nH]ncc4nc3[C@H](Cc3cc(F)cc(F)c3)NC(=O)Cn3nc(C(F)F)c4c3C(F)(F)[C@@H]3C[C@H]43)ccc(Cl)c12 (single isomer, unassigned) [Example 93]	> 10000	0.099	–
Cn1nc(NS(C)(=O)=O)c2c(Cl)ccc(-n3c([C@H](Cc4cc(F)cc(F)c4)NC(=O)Cn4nc(C(F)F)c5c4C(F)(F)[C@@H]4C[C@H]54)nc4cc(Cl)cc(Cl)c4c3=O)c21 (single isomer, unassigned) [Example 180]	> 1000	87.4	–
Cn1nc(NS(C)(=O)=O)c2c(Cl)ccc(-n3c([C@H](Cc4cc(F)cc(F)c4)NC(=O)Cn4nc(C(F)F)c5c4C(F)(F)C4CC54)nc4nc(C(F)(F)F)ccc4c3=O)c21 (stereo in doubt) [Example 11.2, N—((S)-1-(3-(4-chloro-1-methyl-3-(methylsulfonamido)-1H-indazol-7-yl)-4-oxo-7-(trifluoromethyl)-3,4-dihydropyrido[2,3-d]pyrimidin-2-yl)-2-(3,5-difluorophenyl)ethyl)-2-((3bS,4aR)-3-(difluoromethyl)-5,5-difluoro-3b,4,4a,5-tetrahydro-1H-cyclopropa[3,4]cyclopenta[1,2-c]pyrazol-1-yl)acetamide]	–	–	CC50 at 4 days [1]: > 10000 nM; conversion to another stereoisomer on storage [2]: converts slowly to one of the isomers in Example 11.1; EC50 ([3]; Renilla, NL43, Table 1): 51 nM
Cc1ccn(CC(=O)N[C@@H](Cc2cc(F)cc(F)c2)c2nc3ncccc3c(=O)n2-c2ccc(Cl)c3c(NS(C)(=O)=O)nn(C)c23)n1 (single isomer, unassigned) [Example 47.2]	> 1000	1.7	–
Cn1nc(NS(C)(=O)=O)c2c(Cl)ccc(-n3c([C@H](Cc4cc(F)cc(F)c4)NC(=O)Cn4nc(C(F)F)c5c4C(F)(F)[C@@H]4C[C@H]54)nc4ccc(F)c(Cl)c4c3=O)c21 (single isomer, unassigned) [Example 161]	> 1000	28.9	–
COc1ccc2c(=O)n(-c3ccc(Cl)c4c(NS(C)(=O)=O)nn(CC(F)F)c34)c([C@H](Cc3cc(F)cc(F)c3)NC(=O)Cn3ccc(C4CC4)n3)nc2n1 (atropisomer, axis not shown) [Example 55.2, N-[(1S)-1-{3-[4-chloro-1-(2,2-difluoroethyl)-3-methanesulfonamido-1H-indazol-7-yl]-7-methoxy-4-oxo-3H,4H-pyrido[2,3-d]pyrimidin-2-yl}-2-(3,5-difluorophenyl)ethyl]-2-(3-cyclopropyl-1H-pyrazol-1-yl)acetamide]	> 1000	0.33	–
Cn1ccc2nc([C@@H](Cc3cc(F)cc(F)c3)NC(=O)Cn3nc(C(F)F)c4c3C(F)(F)[C@@H]3C[C@H]43)c(-c3ccc(Cl)c4c(NS(C)(=O)=O)nn(C)c34)cc21 (single isomer, unassigned) [Example 122]	> 10000	172	–
COc1c(F)ccc2c(=O)n(-c3ccc(Cl)c4c(NS(C)(=O)=O)nn(C)c34)c([C@H](Cc3cc(F)cc(F)c3)NC(=O)Cn3nc(C(F)F)c4c3C(F)(F)[C@@H]3C[C@H]43)nc12 (single isomer, unassigned) [Example 110]	> 1000	0.072	–
Cc1c(F)ccc2c(=O)n(-c3ccc(Cl)c4c(NS(C)(=O)=O)nn(C)c34)c([C@H](Cc3cc(F)cc(F)c3)NC(=O)Cn3nc(C(F)F)c4c3C(F)(F)[C@@H]3C[C@H]43)nc12 (single isomer, unassigned) [Example 108]	> 1000	0.85	–
Cn1nc(NS(C)(=O)=O)c2c(Cl)ccc(-n3c([C@H](Cc4cc(F)cc(F)c4)NC(=O)Cn4nc(C(F)F)c5c4CCC5)nc4c(F)cc(F)cc4c3=O)c21 (single isomer, unassigned) [Example 100]	> 1000	0.033	–
